Assay results from the supplement of paper PMC11451515.

Columns and labels:
Conditions in all cases: 48 h
NOMO1 [1] = assay: AUC of viability dose-response curve (% viability x log10 dose units); higher = less sensitive
Procedure, shortened: (§1)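 Area under the curve was integrated by trapezoidal rule from a log-logistic fit of normalised viability, with curves exceeding full viability scaled and quality-control failures removed. The fit had four parameters over log10 doses. Viability came from CellTiter-Glo One luminescence, normalised per plate to DMSO and cell-free wells, after leukemia cells adapted to each medium (500 or 1000 cells/well, 1536-well plates) were exposed to library compounds in DMSO for 48 h at 37°C. The 11 threefold doses ran from 47 μM to 0.79 nM.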

SEM cells [2] = assay: as above
Procedure, shortened: as §1

P12-Ichikawa [3] = assay: as above
Procedure, shortened: as §1

NOMO1 [4] = assay: cell viability relative to DMSO control; higher = less cytotoxic
Procedure, shortened: (§2)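 Viability is a per-plate percentage relative to DMSO wells, with cell-free wells as background. CellTiter-Glo One luminescence was read after 48 h at 37°C on 1536-well plates (5 μl) of NOMO1 or SEM (500 cells/well) or P12-Ichikawa (1000 cells/well) leukemia cells. The cells had been adapted for at least four passages in each medium and pin-dosed with library compounds in DMSO from 47 μM to 0.79 nM in 11 threefold steps.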

SEM cells [5] = assay: as above
Procedure, shortened: as §2

P12-Ichikawa [6] = assay: as above
Procedure, shortened: as §2

COc1cc(CNC(=O)CCCC/C=C/C(C)C)ccc1O
AUC of viability dose-response curve
Conditions | NOMO1 [1] | P12-Ichikawa [3] | SEM cells [2]
HPLM + 10% dialyzed FBS | 380 | 287 | 343
RPMI 5 mM glucose + 10% FBS | 368 | 322 | 310
RPMI 5 mM glucose + 10% dialyzed FBS | 399 | 305 | 329

cell viability [%]
Conditions | NOMO1 [4] | P12-Ichikawa [6] | SEM cells [5]
HPLM + 10% dialyzed FBS, 0.000781 µM | 111 | 108 | 88.8
HPLM + 10% dialyzed FBS, 0.00234 µM | 116 | 99.4 | 92.6
HPLM + 10% dialyzed FBS, 0.00702 µM | 113 | 106 | 104
HPLM + 10% dialyzed FBS, 0.0211 µM | 123 | 102 | 99
HPLM + 10% dialyzed FBS, 0.0632 µM | 114 | 102 | 101
HPLM + 10% dialyzed FBS, 0.19 µM | 112 | 101 | 96.6
HPLM + 10% dialyzed FBS, 0.569 µM | 71.5 | 13.3 | 79.7
HPLM + 10% dialyzed FBS, 1.71 µM | 77 | 11 | 36.7
HPLM + 10% dialyzed FBS, 5.12 µM | 79.1 | 11 | 32.9
HPLM + 10% dialyzed FBS, 15.4 µM | 60.9 | 12.3 | 29.7
HPLM + 10% dialyzed FBS, 46.1 µM | 47.2 | 14.1 | 18.6
RPMI 5 mM glucose + 10% FBS, 0.000781 µM | 101 | 104 | 110
RPMI 5 mM glucose + 10% FBS, 0.00234 µM | 99.6 | 105 | 110
RPMI 5 mM glucose + 10% FBS, 0.00702 µM | 95 | 109 | 121
RPMI 5 mM glucose + 10% FBS, 0.0211 µM | 115 | 106 | 123
RPMI 5 mM glucose + 10% FBS, 0.0632 µM | 104 | 104 | 107
RPMI 5 mM glucose + 10% FBS, 0.19 µM | 114 | 119 | 111
RPMI 5 mM glucose + 10% FBS, 0.569 µM | 90.6 | 95.2 | 56.7
RPMI 5 mM glucose + 10% FBS, 1.71 µM | 45.9 | 12.2 | 19.3
RPMI 5 mM glucose + 10% FBS, 5.12 µM | 36.6 | 12.2 | 21.4
RPMI 5 mM glucose + 10% FBS, 15.4 µM | 41.1 | 10.1 | 15.9
RPMI 5 mM glucose + 10% FBS, 46.1 µM | 36.4 | 10.5 | 12.5
RPMI 5 mM glucose + 10% dialyzed FBS, 0.000781 µM | 102 | 111 | 94.3
RPMI 5 mM glucose + 10% dialyzed FBS, 0.00234 µM | 97.8 | 103 | 93.2
RPMI 5 mM glucose + 10% dialyzed FBS, 0.00702 µM | 103 | 106 | 98.7
RPMI 5 mM glucose + 10% dialyzed FBS, 0.0211 µM | 98.5 | 108 | 101
RPMI 5 mM glucose + 10% dialyzed FBS, 0.0632 µM | 106 | 116 | 94.6
RPMI 5 mM glucose + 10% dialyzed FBS, 0.19 µM | 101 | 112 | 93.8
RPMI 5 mM glucose + 10% dialyzed FBS, 0.569 µM | 99.5 | 32.9 | 86.6
RPMI 5 mM glucose + 10% dialyzed FBS, 1.71 µM | 55.3 | 21.3 | 23.6
RPMI 5 mM glucose + 10% dialyzed FBS, 5.12 µM | 52 | 22.2 | 27.2
RPMI 5 mM glucose + 10% dialyzed FBS, 15.4 µM | 50.4 | 14.3 | 19
RPMI 5 mM glucose + 10% dialyzed FBS, 46.1 µM | 59.7 | 15.7 | 15.4

COc1ccc2cc1Oc1ccc(cc1)C[C@H]1c3cc(c(OC)cc3CCN1C)Oc1c(OC)c(OC)cc3c1[C@H](C2)N(C)CC3
AUC of viability dose-response curve
Conditions | NOMO1 [1] | P12-Ichikawa [3] | SEM cells [2]
HPLM + 10% dialyzed FBS | 430 | 442 | 423
RPMI 5 mM glucose + 10% FBS | 451 | 447 | 432
RPMI 5 mM glucose + 10% dialyzed FBS | 452 | 458 | 441

cell viability [%]
Conditions | NOMO1 [4] | P12-Ichikawa [6] | SEM cells [5]
HPLM + 10% dialyzed FBS, 0.000781 µM | – | 113 | 123
HPLM + 10% dialyzed FBS, 0.00234 µM | – | 122 | 120
HPLM + 10% dialyzed FBS, 0.00702 µM | – | 118 | 135
HPLM + 10% dialyzed FBS, 0.0211 µM | – | 118 | 107
HPLM + 10% dialyzed FBS, 0.0632 µM | – | 110 | 111
HPLM + 10% dialyzed FBS, 0.19 µM | – | 114 | 123
HPLM + 10% dialyzed FBS, 0.569 µM | – | 113 | 108
HPLM + 10% dialyzed FBS, 1.71 µM | – | 101 | 82.6
HPLM + 10% dialyzed FBS, 5.12 µM | – | 96.8 | 130
HPLM + 10% dialyzed FBS, 15.4 µM | – | 98.3 | 102
HPLM + 10% dialyzed FBS, 46.1 µM | – | 63.2 | 86.8
RPMI 5 mM glucose + 10% FBS, 0.000781 µM | 109 | 123 | 124
RPMI 5 mM glucose + 10% FBS, 0.00234 µM | 110 | 118 | 122
RPMI 5 mM glucose + 10% FBS, 0.00702 µM | 132 | 115 | 115
RPMI 5 mM glucose + 10% FBS, 0.0211 µM | 111 | 117 | 144
RPMI 5 mM glucose + 10% FBS, 0.0632 µM | 111 | 113 | 127
RPMI 5 mM glucose + 10% FBS, 0.19 µM | 116 | 111 | 126
RPMI 5 mM glucose + 10% FBS, 0.569 µM | 117 | 112 | 120
RPMI 5 mM glucose + 10% FBS, 1.71 µM | 107 | 111 | 88.9
RPMI 5 mM glucose + 10% FBS, 5.12 µM | 98.3 | 103 | 116
RPMI 5 mM glucose + 10% FBS, 15.4 µM | 99.8 | 91.2 | 105
RPMI 5 mM glucose + 10% FBS, 46.1 µM | 85.1 | 49.1 | 72.5
RPMI 5 mM glucose + 10% dialyzed FBS, 0.000781 µM | 107 | 114 | 125
RPMI 5 mM glucose + 10% dialyzed FBS, 0.00234 µM | 120 | 111 | 117
RPMI 5 mM glucose + 10% dialyzed FBS, 0.00702 µM | 121 | 115 | 113
RPMI 5 mM glucose + 10% dialyzed FBS, 0.0211 µM | 118 | 106 | 125
RPMI 5 mM glucose + 10% dialyzed FBS, 0.0632 µM | 113 | 113 | 107
RPMI 5 mM glucose + 10% dialyzed FBS, 0.19 µM | 119 | 103 | 135
RPMI 5 mM glucose + 10% dialyzed FBS, 0.569 µM | 111 | 105 | 105
RPMI 5 mM glucose + 10% dialyzed FBS, 1.71 µM | 108 | 103 | 95.6
RPMI 5 mM glucose + 10% dialyzed FBS, 5.12 µM | 103 | 102 | 114
RPMI 5 mM glucose + 10% dialyzed FBS, 15.4 µM | 98.7 | 95.6 | 89.5
RPMI 5 mM glucose + 10% dialyzed FBS, 46.1 µM | 86.8 | 58.5 | 64
